Drawing on US7772180B2, “Hepatitis C virus inhibitors” (Bristol-Myers Squibb Company, priority 2006, dated 2010), this text covers IC50 and EC50 for 19 compounds.

pEC50, pIC50: −log10 of the molar value. Where two headings read alike, the source gives them in different places.

Usually pIC50 stands for −log10 of the IC50, conventionally taken in molar units. By pEC50 is commonly meant −log10 of the EC50, conventionally taken in molar units.

Test [1] concerns the target T1, HCV NS3/4A protease complex, BMS strain (UniProt P27958, species not given/STRAIN_BMS).
T1 construct: other: NS3/4A BMS strain; activity range class; numeric values, unit not given; said of H77 and J4L6S; fused on or other part: A three-lysine solubilising tail at the C-terminus of NS4A; A His tag is implied by the pET21b vector and Ni-NTA purification; Both are printed for the H77 and J4L6S constructs and apply to BMS by inference
The test can be described thus: FRET peptide assay to monitor HCV NS3/4A proteolytic activity (BMS strain). It is filed as biochemical, Hepatitis C virus (genotype 1a). In a few lines: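 Inhibition measured by real-time fluorescence increase as the protease cleaves RET S1 FRET depsipeptide (2 μM final). Enzyme: >90% pure BMS-strain (1a) NS3/4A at 2-3 nM final, or 300 pM with 50 μg/ml BSA for potent compounds. Buffer: 50 mM HEPES pH 7.5, 0.15 M NaCl, 0.1% Triton, 15% glycerol, 10 mM βME.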

Test [2] deals with HCV replicon (strain 1b) in HUH-7 cells. The test can be described thus: HCV replicon FRET assay. It is filed as cell-based, Hepatitis C virus.
[3] abbreviates: read-out: HCV Protease (IC50); NS3/4A BMS strain; activity range class.
Setting [4] is: Hepatitis C virus, Huh-7, read-out: HCV Pro Replicon (EC50), HCV replicon cell assay, activity range class.
Where [5] appears, read: read-out: HCV Pro Replicon (EC50), HCV replicon cell assay, activity range class.

T1 sequence (P27958 1027-1657, change not shown, one chain of several): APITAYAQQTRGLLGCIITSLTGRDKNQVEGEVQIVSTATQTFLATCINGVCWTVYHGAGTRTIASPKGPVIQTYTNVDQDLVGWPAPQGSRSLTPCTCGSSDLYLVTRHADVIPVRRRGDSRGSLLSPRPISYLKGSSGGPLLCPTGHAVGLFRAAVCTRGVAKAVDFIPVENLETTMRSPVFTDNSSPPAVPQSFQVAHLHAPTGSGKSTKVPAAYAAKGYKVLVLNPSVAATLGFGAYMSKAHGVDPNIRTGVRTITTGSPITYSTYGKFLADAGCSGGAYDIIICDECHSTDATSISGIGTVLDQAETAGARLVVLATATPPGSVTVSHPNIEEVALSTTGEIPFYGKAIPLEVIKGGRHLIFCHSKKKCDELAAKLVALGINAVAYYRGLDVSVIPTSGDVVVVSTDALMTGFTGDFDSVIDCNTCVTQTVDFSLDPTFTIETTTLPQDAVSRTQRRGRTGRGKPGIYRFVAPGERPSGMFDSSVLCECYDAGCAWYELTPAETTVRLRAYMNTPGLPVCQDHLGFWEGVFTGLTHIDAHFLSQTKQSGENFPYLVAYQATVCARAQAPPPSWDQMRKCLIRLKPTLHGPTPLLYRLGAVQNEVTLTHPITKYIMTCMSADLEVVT

For the compound `C=C[C@@H]1C[C@]1(NC(=O)[C@@H]1C[C@@H](Oc2ncc(OC)c3ccc(Cl)cc23)CN1C(=O)C(Nc1cccc(OC)c1)C(C)(C)C)C(=O)NS(=O)(=O)C1CC1` (single isomer, unassigned) [Compound 201A], the pIC50 in test [1] (read-out: HCV Protease (IC50); NS3/4A BMS strain; numeric values, unit inferred) is 8.40. For the same compound, the negative-log EC50 (pEC50) in test [2] (Hepatitis C virus, Huh-7, read-out: HCV Pro Replicon (EC50), HCV replicon cell assay, numeric values, unit inferred) was 8.37.

As for `C=C[C@@H]1C[C@]1(NC(=O)[C@@H]1C[C@@H](Oc2ncc(OC)c3ccc(Cl)cc23)CN1C(=O)C(Nc1cccc(OC)c1)C(C)(C)C)C(=O)NS(=O)(=O)C1CC1` (single isomer, unassigned) [Compound 201B], the pIC50 in test [1] (setting [3]) is 6.70 to 7.70. For the same compound, in test [2] (setting [4]), the pEC50 was 7.00 to 8.52.

For the compound `C=CC1CC1(NC(=O)C1CC(Oc2ncc(OC)c3ccc(Cl)cc23)CN1C(=O)C(Nc1ccccc1)C(C)(C)C)C(=O)NS(=O)(=O)C1CC1` (single isomer, unassigned; isomer 3) [213 first isomer], in test [1] (setting [3]), the pIC50 was less than 6.70. Further, the negative-log EC50 (pEC50) in test [2] (setting [5]) was 6.00 to 7.00.

In the case of `C=CC1CC1(NC(=O)C1CC(Oc2ncc(OC)c3ccc(Cl)cc23)CN1C(=O)C(Nc1ccccc1)C(C)(C)C)C(=O)NS(=O)(=O)C1CC1` (single isomer, unassigned; isomer 3) [213 second isomer], the pIC50 in test [1] (setting [3]) was 7.70 to 9.22. Besides, the pEC50 in test [2] (setting [5]) was 7.00 to 8.52.

On to `C=C[C@@H]1C[C@]1(NC(=O)[C@@H]1C[C@@H](Oc2ncc(OC)c3ccc(Cl)cc23)CN1C(=O)[C@@H](Nc1cccc(C(=O)NC(C)(C)c2ccccc2)c1)C(C)(C)C)C(=O)NS(=O)(=O)C1CC1` (single isomer, unassigned; isomer 3) [216 first isomer], for which the pIC50 in test [1] (NS3/4A BMS strain; activity range class; read-out: HCV Protease (IC50)) is 7.70 to 9.22. For the same compound, the negative logarithm of the EC50 (pEC50) in test [2] (HCV replicon cell assay, activity range class, read-out: HCV Pro Replicon (EC50)) was 7.00 to 8.52.

Turning to `C=C[C@@H]1C[C@]1(NC(=O)[C@@H]1C[C@@H](Oc2nccc3cc(OC)ccc23)CN1C(=O)[C@H](Nc1nc(C)cc(C)n1)C(C)C)C(=O)NS(=O)(=O)C1CC1` [6 first isomer, N-(4,6-dimethyl-2-pyrimidinyl)-D-valyl-(4R)—N-((1R,2S)-1-((cyclopropylsulfonyl)carbamoyl)-2-vinylcyclopropyl)-4-((6-methoxy-1-isoquinolinyl)oxy)-L-prolinamide], the pIC50 in test [1] (setting [3]) is 6.70 to 7.70. Further, the pEC50 in test [2] (setting [4]) was less than 6.00.

For the compound `C=C[C@@H]1C[C@]1(NC(=O)[C@@H]1C[C@@H](Oc2nccc3cc(OC)ccc23)CN1C(=O)[C@@H](Nc1nc(C)cc(C)n1)C(C)C)C(=O)NS(=O)(=O)C1CC1` [6 second isomer, N-(4,6-dimethyl-2-pyrimidinyl)-L-valyl-(4R)—N-((1R,2S)-1-((cyclopropylsulfonyl)carbamoyl)-2-vinylcyclopropyl)-4-((6-methoxy-1-isoquinolinyl)oxy)-L-prolinamide], the pIC50 in test [1] (setting [3]) was 7.70 to 9.22. In addition, in test [2] (setting [4]), the pEC50 was 6.00 to 7.00.

`C=C[C@@H]1C[C@]1(NC(=O)[C@@H]1C[C@@H](Oc2nccc3cc(OC)ccc23)CN1C(=O)[C@@H](Nc1ccccn1)C(C)(C)C)C(=O)NS(=O)(=O)C1CC1` [12 first isomer, 3-methyl-N-2-pyridinyl-L-valyl-(4R)—N-((1R,2S)-1-((cyclopropylsulfonyl)carbamoyl)-2-vinylcyclopropyl)-4-((6-methoxy-1-isoquinolinyl)oxy)-L-prolinamide]: in test [1] (setting [3]), the negative-log IC50 (pIC50) is 7.70 to 9.22. In addition, in test [2] (setting [4]), the negative logarithm of the EC50 (pEC50) was 7.00 to 8.52.

Regarding `C=C[C@@H]1C[C@]1(NC(=O)[C@@H]1C[C@@H](Oc2nccc3cc(OC)ccc23)CN1C(=O)[C@H](Nc1ccccn1)C(C)(C)C)C(=O)NS(=O)(=O)C1CC1` [12 second isomer, 3-methyl-N-2-pyridinyl-D-valyl-(4R)—N-((1R,2S)-1-((cyclopropylsulfonyl)carbamoyl)-2-vinylcyclopropyl)-4-((6-methoxy-1-isoquinolinyl)oxy)-L-prolinamide], the pIC50 in test [1] (setting [3]) was 6.70 to 7.70. Further, the pEC50 in test [2] (setting [4]) was 6.00 to 7.00.

Take `C=C[C@@H]1C[C@]1(NC(=O)[C@@H]1C[C@@H](Oc2nccc3cc(OC)ccc23)CN1C(=O)[C@@H](Nc1cccnc1)C(C)(C)C)C(=O)NS(=O)(=O)C1CC1` [13 first isomer, 3-methyl-N-3-pyridinyl-L-valyl-(4R)—N-((1R,2S)-1-((cyclopropylsulfonyl)carbamoyl)-2-vinylcyclopropyl)-4-((6-methoxy-1-isoquinolinyl)oxy)-L-prolinamide]: the pIC50 in test [1] (setting [3]) was 6.70 to 7.70. In addition, in test [2] (setting [4]), the pEC50 was 7.00 to 8.52.

As for `C=C[C@@H]1C[C@]1(NC(=O)[C@@H]1C[C@@H](Oc2nccc3cc(OC)ccc23)CN1C(=O)[C@@H](Nc1cc(C)cc(C)n1)C(C)(C)C)C(=O)NS(=O)(=O)C1CC1` [14 first isomer, N-(4,6-dimethyl-2-pyridinyl)-3-methyl-L-valyl-(4R)—N-((1R,2S)-1-((cyclopropylsulfonyl)carbamoyl)-2-vinylcyclopropyl)-4-((6-methoxy-1-isoquinolinyl)oxy)-L-prolinamide], in test [1] (setting [3]), the negative logarithm of the IC50 (pIC50) is 7.70 to 9.22. Besides, the pEC50 in test [2] (setting [4]) was 7.00 to 8.52.

`C=C[C@@H]1C[C@]1(NC(=O)[C@@H]1C[C@@H](Oc2nccc3cc(OC)ccc23)CN1C(=O)[C@H](Nc1cc(C)cc(C)n1)C(C)(C)C)C(=O)NS(=O)(=O)C1CC1` [14 second isomer, N-(4,6-dimethyl-2-pyridinyl)-3-methyl-D-valyl-(4R)—N-((1R,2S)-1-((cyclopropylsulfonyl)carbamoyl)-2-vinylcyclopropyl)-4-((6-methoxy-1-isoquinolinyl)oxy)-L-prolinamide]: the pIC50 in test [1] (setting [3]) was less than 6.70. Also, the pEC50 in test [2] (setting [4]) is 6.00 to 7.00.

Take `C=C[C@@H]1C[C@]1(NC(=O)[C@@H]1C[C@@H](Oc2nccc3cc(OC)ccc23)CN1C(=O)[C@@H](Nc1ccccc1)C(C)(C)C)C(=O)NS(=O)(=O)C1CC1` [15 first isomer, 3-methyl-N-phenyl-L-valyl-(4R)—N-((1R,2S)-1-((cyclopropylsulfonyl)carbamoyl)-2-vinylcyclopropyl)-4-((6-methoxy-1-isoquinolinyl)oxy)-L-prolinamide]: the negative logarithm of the IC50 (pIC50) in test [1] (setting [3]) was 7.70 to 9.22. For the same compound, the negative-log EC50 (pEC50) in test [2] (setting [4]) was 7.00 to 8.52.

On to `C=C[C@@H]1C[C@]1(NC(=O)[C@@H]1C[C@@H](Oc2ncc(OC)c3ccc(Cl)cc23)CN1C(=O)[C@@H](Nc1ccc(C(=O)OC(C)(C)C)cc1)C(C)(C)C)C(=O)NS(=O)(=O)C1CC1` [204 first isomer, tert-butyl 4-((S)-1-((2S,4R)-4-(7-chloro-4-methoxyisoquinolin-1-yloxy)-2-((1R,2S)-1-(cyclopropylsulfonylcarbamoyl)-2-vinylcyclopropylcarbamoyl)pyrrolidin-1-yl)-3,3-dimethyl-1-oxobutan-2-ylamino)benzoate], for which the pIC50 in test [1] (setting [3]) is 7.70 to 9.22. The pEC50 in test [2] (setting [5]) is 7.00 to 8.52.

As for `C=C[C@@H]1C[C@]1(NC(=O)[C@@H]1C[C@@H](Oc2ncc(OC)c3ccc(Cl)cc23)CN1C(=O)C(Nc1ccc(C(=O)OC(C)(C)C)cc1)C(C)(C)C)C(=O)NS(=O)(=O)C1CC1` (stereo partly drawn) [204 second isomer], the pIC50 in test [1] (setting [3]) is less than 6.70. Besides, the negative-log EC50 (pEC50) in test [2] (setting [5]) is less than 6.00.

Turning to `C=C[C@@H]1C[C@]1(NC(=O)[C@@H]1C[C@@H](Oc2ncc(OC)c3ccc(Cl)cc23)CN1C(=O)[C@@H](Nc1ccc(C#N)cc1)C(C)(C)C)C(=O)NS(=O)(=O)C1CC1` [205 first isomer, N-(4-cyanophenyl)-3-methyl-L-valyl-(4R)-4-((7-chloro-4-methoxy-1-isoquinolinyl)oxy)-N-((1R,2S)-1-((cyclopropylsulfonyl)carbamoyl)-2-vinylcyclopropyl)-L-prolinamide], the pIC50 in test [1] (setting [3]) was 7.70 to 9.22. Moreover, the pEC50 in test [2] (setting [4]) was 7.00 to 8.52.

As for `C=C[C@@H]1C[C@]1(NC(=O)[C@@H]1C[C@@H](Oc2ncc(OC)c3ccc(Cl)cc23)CN1C(=O)[C@H](Nc1ccc(C#N)cc1)C(C)(C)C)C(=O)NS(=O)(=O)C1CC1` [205 second isomer, N-(4-cyanophenyl)-3-methyl-D-valyl-(4R)-4-((7-chloro-4-methoxy-1-isoquinolinyl)oxy)-N-((1R,2S)-1-((cyclopropylsulfonyl)carbamoyl)-2-vinylcyclopropyl)-L-prolinamide], the negative logarithm of the IC50 (pIC50) in test [1] (setting [3]) was less than 6.70. Also, the negative-log EC50 (pEC50) in test [2] (setting [4]) is 7.00 to 8.52.

On to `C=C[C@@H]1C[C@]1(NC(=O)[C@@H]1C[C@@H](Oc2ncc(OC)c3ccc(Cl)cc23)CN1C(=O)[C@@H](Nc1cccc(S(=O)(=O)NC(C)(C)C)c1)C(C)(C)C)C(=O)NS(=O)(=O)C1CC1` [206 first isomer, N-(3-(tert-butylsulfamoyl)phenyl)-3-methyl-L-valyl-(4R)-4-((7-chloro-4-methoxy-1-isoquinolinyl)oxy)-N-((1R,2S)-1-((cyclopropylsulfonyl)carbamoyl)-2-vinylcyclopropyl)-L-prolinamide], for which the negative logarithm of the IC50 (pIC50) in test [1] (setting [3]) was 7.70 to 9.22. For the same compound, in test [2] (setting [4]), the negative-log EC50 (pEC50) was 7.00 to 8.52.

Turning to `C=C[C@@H]1C[C@]1(NC(=O)[C@@H]1C[C@@H](Oc2ncc(OC)c3ccc(Cl)cc23)CN1C(=O)[C@H](Nc1cccc(S(=O)(=O)NC(C)(C)C)c1)C(C)(C)C)C(=O)NS(=O)(=O)C1CC1` [206 second isomer, N-(3-(tert-butylsulfamoyl)phenyl)-3-methyl-D-valyl-(4R)-4-((7-chloro-4-methoxy-1-isoquinolinyl)oxy)-N-((1R,2S)-1-((cyclopropylsulfonyl)carbamoyl)-2-vinylcyclopropyl)-L-prolinamide], in test [1] (setting [3]), the pIC50 is less than 6.70. In addition, the negative-log EC50 (pEC50) in test [2] (setting [4]) is less than 6.00.
